The source of these data is PubChem BioAssay AID330 (DTP/NCI, 2004).

Several values for one entry are separate records, joined by “and”; a condition that tells them apart may be missing. Equal entries are not always repeated. Toxic doses and inconclusive results are not listed.

This test has as its system P388 leukemia ip, CD2F1 mice, survival T/C. Kind of test: NCI In Vivo Anticancer Drug Screen. Data for tumor model P388 Leukemia (intraperitoneal) in CD2F1 (CDF1) mice. The note with it: endpoint: median survival time, higher = longer survival. The method, boiled down:
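Mice carrying the transplanted tumor received test compound or vehicle. Survival was recorded in each group, and the value is the treated-group measurement divided by that of the vehicle-treated control group.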

Setting [1] is: dose: 60.0 mg/kg/injection, schedule: Q01DX005 (ip), vehicle: Klucel (hydroxypropylcellulose) (HPC).
The mark [2] stands for this setting: dose: 120.0 mg/kg/injection, schedule: Q01DX005 (ip), vehicle: Klucel (hydroxypropylcellulose) (HPC).
Where [3] appears, read: dose: 240.0 mg/kg/injection, schedule: Q01DX005 (ip), vehicle: Klucel (hydroxypropylcellulose) (HPC).
[4] abbreviates: dose: 50.0 mg/kg/injection, schedule: Q01DX005 (ip), vehicle: saline with Tween-80.
[5] abbreviates: dose: 100.0 mg/kg/injection, schedule: Q01DX005 (ip), vehicle: saline with Tween-80.
Where [6] appears, read: dose: 200.0 mg/kg/injection, schedule: Q01DX005 (ip), vehicle: saline with Tween-80.
[7] abbreviates: dose: 50.0 mg/kg/injection, schedule: Q01DX005 (ip), vehicle: Klucel (hydroxypropylcellulose) (HPC).
Setting [8] is: dose: 100.0 mg/kg/injection, schedule: Q01DX005 (ip), vehicle: Klucel (hydroxypropylcellulose) (HPC).
The mark [9] stands for this setting: dose: 200.0 mg/kg/injection, schedule: Q01DX005 (ip), vehicle: Klucel (hydroxypropylcellulose) (HPC).

Turning to `COC(=O)C1(F)C(=O)NC(=O)NC1O` (stereo unspecified), the T/C was 100 % of control (dose: 7.5 mg/kg/injection, schedule: Q01DX005 (ip), vehicle: saline); 102 % of control (dose: 15.0 mg/kg/injection, schedule: Q01DX005 (ip), vehicle: saline); 100 % of control (dose: 30.0 mg/kg/injection, schedule: Q01DX005 (ip), vehicle: saline).

Regarding `COc1cc2cc(c1Cl)N(C)C(=O)CC(OC(=O)C(C)N(C)C(=O)C(C)C)C1(C)OC1C(C)C1CC(O)(NC(=O)O1)C(OC)/C=C/C=C(C)C2OC` (stereo unspecified), the T/C is 157 % of control and 163 % of control (dose: 4.0 micrograms/kg/injection, schedule: Q01DX009 (ip), vehicle: Klucel (hydroxypropylcellulose) (HPC)); 108 % of control (dose: 4.0 micrograms/kg/injection, schedule: Q01DX009 (ip), vehicle: distilled water + alcohol); 168 % of control (dose: 8.0 micrograms/kg/injection, schedule: Q01DX009 (ip), vehicle: Klucel (hydroxypropylcellulose) (HPC)); 108 % of control and 115 % of control (dose: 8.0 micrograms/kg/injection, schedule: Q01DX009 (ip), vehicle: distilled water + alcohol); 157 % of control (dose: 15.5 micrograms/kg/injection, schedule: Q01DX009 (ip), vehicle: none); 154 % of control (dose: 16.0 micrograms/kg/injection, schedule: Q01DX009 (ip), vehicle: Klucel (hydroxypropylcellulose) (HPC)). The T/C runs as follows: (dose: 16.0 micrograms/kg/injection, schedule: Q01DX009 (ip), vehicle: distilled water + alcohol) 100 % of control and 123 % of control; (dose: 31.0 micrograms/kg/injection, schedule: Q01DX009 (ip), vehicle: none) 150 % of control; (dose: 32.0 micrograms/kg/injection, schedule: Q01DX009 (ip), vehicle: distilled water + alcohol) 100 % of control; (dose: 64.0 micrograms/kg/injection, schedule: Q01DX009 (ip), vehicle: Klucel (hydroxypropylcellulose) (HPC)) 91 % of control; (dose: 64.0 micrograms/kg/injection, schedule: Q01DX009 (ip), vehicle: distilled water + alcohol) 100 % of control; (dose: 128.0 micrograms/kg/injection, schedule: Q01DX009 (ip), vehicle: distilled water + alcohol) 106 % of control.

On to `COc1ccc2c(c1)CCC1=C2CCC2(C)C1=CCS2(=O)=O` (stereo unspecified), for which the T/C under setting [1] is 105 % of control, the T/C under setting [2] is 90 % of control and the T/C under setting [3] is 97 % of control.

For `Cn1c2ccccc2c(=O)c2cc(NC(=O)CCC(=O)Nc3ccc4c(c3)c(=O)c3ccccc3n4C)ccc21`, the T/C is, setting by setting: under setting [4], 99 % of control; under setting [5], 97 % of control; under setting [6], 97 % of control.

Turning to `COCON=C(C)C`, the T/C (dose: 100.0 mg/kg/injection, schedule: Q01DX001 (ip), vehicle: saline) is 100 % of control; the T/C (dose: 200.0 mg/kg/injection, schedule: Q01DX001 (ip), vehicle: saline) is 99 % of control; the T/C (dose: 400.0 mg/kg/injection, schedule: Q01DX001 (ip), vehicle: saline) was 98 % of control.

On to `C[C@]12CCC(=O)C=C1CC[C@@H]1[C@@H]2CC[C@@]2(C)[C@H]1CCCN2CCO`, for which the T/C by setting is: (dose: 25.0 mg/kg/injection, schedule: Q01DX001 (ip), vehicle: Klucel (hydroxypropylcellulose) (HPC)) 99 % of control; (dose: 50.0 mg/kg/injection, schedule: Q01DX001 (ip), vehicle: Klucel (hydroxypropylcellulose) (HPC)) 103 % of control; (dose: 100.0 mg/kg/injection, schedule: Q01DX001 (ip), vehicle: Klucel (hydroxypropylcellulose) (HPC)) 99 % of control and 97 % of control.

For `C=C(C)C(=O)Oc1ccccc1/C=C/C(=O)CCCCCC`, the T/C is 98 % of control under setting [4], 96 % of control under setting [5] and 88 % of control under setting [6].

For `O=C(CC(=O)C(F)(F)C(F)(F)C(F)(F)F)c1csc2ccccc12`, where the note is “dose: 100.0 mg/kg/injection, schedule: Q04DX003 (ip), vehicle: saline with Tween-80”, the T/C was 109 % of control.

On to `CCCCn1ccc(=O)[nH]c1=O`, for which the T/C runs as follows: under setting [7], 93 % of control; under setting [8], 99 % of control; under setting [9], 101 % of control.

On to `Cc1nn(-c2ccccc2)c2c1c(=O)c1ccccc1c(=O)n2C`, for which the T/C under setting [7] is 105 % of control, the T/C under setting [8] is 104 % of control and the T/C under setting [9] is 94 % of control.

Regarding `COc1cc2c[n+](C)c(-c3ccc(Cl)c(Cl)c3)c(OC)c2cc1OC`, the T/C is 101 % of control (dose: 12.5 mg/kg/injection, schedule: Q04DX003 (ip), vehicle: saline); 100 % of control (dose: 25.0 mg/kg/injection, schedule: Q04DX003 (ip), vehicle: saline); 100 % of control (dose: 50.0 mg/kg/injection, schedule: Q04DX003 (ip), vehicle: saline).

For `CC(C)(C)SC(=O)CC(O)(c1ccccc1)c1ccccc1`, the T/C by setting is: (dose: 100.0 mg/kg/injection, schedule: Q04DX003 (ip), vehicle: Klucel (hydroxypropylcellulose) (HPC)) 115 % of control; (dose: 200.0 mg/kg/injection, schedule: Q04DX003 (ip), vehicle: Klucel (hydroxypropylcellulose) (HPC)) 106 % of control; (dose: 400.0 mg/kg/injection, schedule: Q04DX003 (ip), vehicle: Klucel (hydroxypropylcellulose) (HPC)) 95 % of control.

For `CC(=O)/C=C1/NC=CN(C(=O)c2ccccc2)C1c1ccccc1` (stereo unspecified), the T/C is 94 % of control under setting [1], 92 % of control under setting [2] and 87 % of control under setting [3].

Consider `COC(=O)C(C)=O`, for which the T/C was 100 % of control (dose: 100.0 mg/kg/injection, schedule: Q04DX003 (ip), vehicle: saline); 90 % of control (dose: 200.0 mg/kg/injection, schedule: Q04DX003 (ip), vehicle: saline); 90 % of control (dose: 400.0 mg/kg/injection, schedule: Q04DX003 (ip), vehicle: saline).

Regarding `[O-][n+]1c2c(cc3ccccc31)Cc1ccccc1-2`, the T/C is, setting by setting: under setting [7], 109 % of control; under setting [8], 101 % of control; under setting [9], 106 % of control.

On to `CC(C)N1CCN(c2ccncc2S(=O)(=O)N2CCCC2)CC1`, for which the T/C is 87 % of control (dose: 50.0 mg/kg/injection, schedule: Q01DX009 (ip), vehicle: saline); 99 % of control (dose: 100.0 mg/kg/injection, schedule: Q01DX009 (ip), vehicle: saline); 97 % of control (dose: 200.0 mg/kg/injection, schedule: Q01DX009 (ip), vehicle: saline).

Turning to `CCSC(C(OC(C)=O)C(OC(C)=O)C(OC(C)=O)C(COC(C)=O)OC(C)=O)n1cnc2c(Cl)ncnc21` (stereo unspecified), the T/C reads like this: under setting [4], 100 % of control; under setting [5], 90 % of control; under setting [6], 96 % of control.

In the case of `COC(=O)C1=C(C(=O)OC)P2(c3ccccc3)(c3ccccc3)S/C(=N\P(C)(C)=S)N2C1(c1ccccc1)c1ccccc1`, the T/C was 98 % of control under setting [7], 88 % of control under setting [8] and 92 % of control under setting [9].

For the compound `COC(=O)C(C)N(CCCl)P1(=O)OCCCN1CCCl` (stereo unspecified), the T/C by setting is: (dose: 60.0 mg/kg/injection, schedule: Q01DX005 (ip), vehicle: saline with Tween-80) 108 % of control; (dose: 60.0 mg/kg/injection, schedule: Q01DX005 (ip), vehicle: saline) 99 % of control; (dose: 120.0 mg/kg/injection, schedule: Q01DX005 (ip), vehicle: saline with Tween-80) 124 % of control; (dose: 240.0 mg/kg/injection, schedule: Q01DX005 (ip), vehicle: saline with Tween-80) 165 % of control; (dose: 240.0 mg/kg/injection, schedule: Q01DX005 (ip), vehicle: saline) 297 % of control; (dose: 400.0 mg/kg/injection, schedule: Q01DX005 (ip), vehicle: saline with Tween-80) 252 % of control.

As to `Cc1cc2nc(CC(=O)c3cccnc3)c(CC(=O)c3cccnc3)nc2cc1C`, the T/C reads like this: (dose: 6.25 mg/kg/injection, schedule: Q01DX005 (ip), vehicle: saline with Tween-80) 90 % of control; (dose: 12.5 mg/kg/injection, schedule: Q01DX005 (ip), vehicle: saline with Tween-80) 90 % of control; (dose: 25.0 mg/kg/injection, schedule: Q01DX005 (ip), vehicle: saline with Tween-80) 90 % of control; under setting [5], 91 % of control.
